Experimental findings from ChEMBL document CHEMBL2375250, “Efficient synthesis of new (R)-2-amino-1-butanol derived ureas, thioureas and acylthioureas and in vitro evaluation of their antimycobacterial activity” (Eur J Med Chem, 2013) are described below.

The structures appear in SMILES notation. Converted amounts (≈) assume the structure as drawn. Counter-ions that a name gives are not always drawn. Bounds are passed on as bounds.

The subject of assay [1] is Mycobacterium tuberculosis. Kind of assay: Antimycobacterial activity against Mycobacterium tuberculosis H37Rv assessed as bacterial growth at 5 ug/mL after 45 days by Lowenstein-Jensen method. The format is functional.
The subject of assay [2] is Mycobacterium tuberculosis. Kind of assay: Antimycobacterial activity against Mycobacterium tuberculosis H37Rv assessed as growth inhibition after 45 days by Lowenstein-Jensen method. The format is functional.
For the next assay, the system named is HEK-293T. Description: Cytotoxicity against HEK293T cells assessed as cell viability after 72 hrs by MTT assay. The format is cell-based. The following applies: Homo sapiens.
Assay [3] can be described thus: Selectivity index, ratio of IC50 for HEK293T cells to MIC for Mycobacterium tuberculosis H37Rv. The format is functional, HEK-293T.
In assay [4] the test system is Mycobacterium tuberculosis. Kind of assay: Antimycobacterial activity against Mycobacterium tuberculosis assessed as growth inhibition. The format is functional.
In another assay the test system is Mycolicibacterium aurum. Kind of assay: Antimycobacterial activity against Mycobacterium aurum A+ assessed as growth inhibition after 4 days microdrop agar proportion test. The following applies: 96 h. The format is functional.
A further assay has as its system Mycobacterium avium. Description: Antimycobacterial activity against Mycobacterium avium 724 assessed as growth inhibition after 12 days microdrop agar proportion test. The format is functional. The following applies: Mycobacterium avium, 724, 288 h.

With `CC[C@H](CO)NC(=O)N[C@H](CC)CO`, the Activity in assay [1] is on record as 100%. Also, the MIC in assay [2] was above 24.5 µM.

Turning to `CC[C@H](CO)NC(=O)N(C)C`, the Activity in assay [1] is 100%. Moreover, the MIC in assay [2] was above 31.2 µM.

Consider `CC[C@H](CO)NC(=S)NC`, for which the Activity in assay [1] is 100%. The MIC in assay [2] was above 30.8 µM.

For the compound `CCNC(=S)N[C@H](CC)CO`, in assay [1], the Activity was 100%. For the same compound, the minimal inhibitory concentration (MIC) in assay [2] is above 28.4 µM.

Take `CC[C@H](CO)NC(=S)NC(=O)CCc1ccccc1`: the half-maximal inhibitory concentration (IC50) with HEK-293T was 66.2 µM. The MIC in assay [2] came out at 7.13 µM (≈ 2 µg/mL). Moreover, in assay [3], the “Selectivity Index” value is 9.3.

Regarding `CC[C@H](CO)NC(=S)NC(=O)/C=C/c1ccccc1`, the IC50 in the assay on HEK-293T turned out to be 42.9 µM. For the same compound, the MIC in assay [2] was 0.36 µM (≈ 0.1 µg/mL). Besides, the “Selectivity Index” value in assay [3] came out at 119.2.

Consider `CC[C@H](CO)NC(=S)NC(=O)c1ccc(N(C)C)cc1`, for which, in the assay on HEK-293T, the IC50 came to 12.8 µM. Moreover, the minimal inhibitory concentration (MIC) in assay [2] was 3.39 µM (≈ 1 µg/mL). Moreover, the “Selectivity Index” value in assay [3] is 3.8.

Turning to `CC[C@H](CO)NC(=S)NC(=O)c1ccccc1O`, the IC50 in the assay with HEK-293T stood at 104 µM. The MIC in assay [2] is 7.46 µM (≈ 2 µg/mL). For the same compound, the “Selectivity Index” value in assay [3] is given as 14.

Consider `CCCNC(=O)N[C@H](CC)CO`, for which the Activity in assay [1] came out at 100%. Moreover, in assay [2], the minimal inhibitory concentration (MIC) was above 28.7 µM.

As for `CCCCNC(=O)N[C@H](CC)CO`, the Activity in assay [1] came out at 100%. The MIC in assay [2] is above 26.6 µM.

Take `CC[C@H](CO)NC(=O)NC1CCCCC1`: in assay [1], the Activity is 100%. For the same compound, the MIC in assay [2] was above 23.3 µM.

As to `CC[C@H](CO)NC(=O)NCC(c1ccccc1)c1ccccc1`, in assay [1], the Activity was 100%. The MIC in assay [2] turned out to be 4.8 µM (≈ 1.5 µg/mL).

As to `CC[C@H](CO)NC(=O)NC12CC3CC(CC(C3)C1)C2`, the Activity in assay [1] is recorded as 100%. Further, the MIC in assay [2] is above 18.8 µM.

`CC[C@H](CO)NC(=O)NCCc1ccccc1`: in assay [1], the Activity is reported as 100%. The MIC in assay [2] is above 21.2 µM.

Turning to `CC[C@H](CO)NC(=O)NCc1ccccc1`, the Activity in assay [1] is recorded as 100%. Also, the MIC in assay [2] was above 22.5 µM.

For the compound `CC[C@H](CO)NC(=O)N[C@H](C)c1ccccc1`, in assay [1], the Activity is listed as 100%. Moreover, the MIC in assay [2] is above 21.2 µM.

Turning to `CC[C@H](CO)NC(=O)Nc1ccccc1`, in assay [1], the Activity is 100%. Besides, the MIC in assay [2] was above 24 µM.

For the compound `CC[C@H](CO)NC(=O)NCCCCCCNC(=O)N[C@H](CC)CO`, the Activity in assay [1] is 100%. The MIC in assay [2] was above 14.4 µM.

As for `CC[C@H](CO)NC(=O)Nc1ccc(NC(=O)N[C@H](CC)CO)cc1`, the Activity in assay [1] is listed as 100%. In addition, in assay [2], the MIC was above 14.8 µM.

In the case of `CC[C@H](CO)NC(=O)Nc1ccc(Cc2ccc(NC(=O)N[C@H](CC)CO)cc2)cc1`, the Activity in assay [1] was found to be 100%. The minimal inhibitory concentration (MIC) in assay [2] is above 11.7 µM.

For `CC[C@H](CO)NC(=O)NC(C)(C)C`, in assay [1], the Activity is 100%. Besides, the MIC in assay [2] is above 26.6 µM.

Turning to `CC[C@@H](CO)NCCN[C@@H](CC)CO` [ETHAMBUTOL HYDROCHLORIDE], the MIC in assay [2] and in assay [4] was 7.22 µM each time.

Turning to `CC(C)=CCC/C(C)=C/CNCCNC1C2CC3CC(C2)CC1C3` (stereo unspecified) [SQ109], the MIC in assay [4] was determined as 0.7 µM (≈ 0.231 µg/mL).

For the compound `CC(C)CCOc1ccc(NC(=S)Nc2ccc(OCCC(C)C)cc2)cc1` [TIOCARLIDE], the values for the MIC in the assay with Mycolicibacterium aurum and with Mycobacterium avium were 4.99 µM and 4.99 µM (≈ 2 µg/mL), respectively.
